Values joined by “and” are separate entries in the source; they are usually repeats but may differ in a detail not shown here. Identical values can stand only once. Like-named read-outs stand apart in the source and are kept apart here.
Tests used:
FLT3-ITD = biological target: T1, FLT3-ITD (Homo sapiens, UniProt P36888, cells depend on it, form not given); assay: BaF3 stable clone growth (WST-1), FLT3-ITD; conditions: read-out: BaF3 Stables IC50 ± SEE, FLT3-ITD
T1 sequence (P36888 with tags, fused parts or gaps INS600HVDFREYEYD): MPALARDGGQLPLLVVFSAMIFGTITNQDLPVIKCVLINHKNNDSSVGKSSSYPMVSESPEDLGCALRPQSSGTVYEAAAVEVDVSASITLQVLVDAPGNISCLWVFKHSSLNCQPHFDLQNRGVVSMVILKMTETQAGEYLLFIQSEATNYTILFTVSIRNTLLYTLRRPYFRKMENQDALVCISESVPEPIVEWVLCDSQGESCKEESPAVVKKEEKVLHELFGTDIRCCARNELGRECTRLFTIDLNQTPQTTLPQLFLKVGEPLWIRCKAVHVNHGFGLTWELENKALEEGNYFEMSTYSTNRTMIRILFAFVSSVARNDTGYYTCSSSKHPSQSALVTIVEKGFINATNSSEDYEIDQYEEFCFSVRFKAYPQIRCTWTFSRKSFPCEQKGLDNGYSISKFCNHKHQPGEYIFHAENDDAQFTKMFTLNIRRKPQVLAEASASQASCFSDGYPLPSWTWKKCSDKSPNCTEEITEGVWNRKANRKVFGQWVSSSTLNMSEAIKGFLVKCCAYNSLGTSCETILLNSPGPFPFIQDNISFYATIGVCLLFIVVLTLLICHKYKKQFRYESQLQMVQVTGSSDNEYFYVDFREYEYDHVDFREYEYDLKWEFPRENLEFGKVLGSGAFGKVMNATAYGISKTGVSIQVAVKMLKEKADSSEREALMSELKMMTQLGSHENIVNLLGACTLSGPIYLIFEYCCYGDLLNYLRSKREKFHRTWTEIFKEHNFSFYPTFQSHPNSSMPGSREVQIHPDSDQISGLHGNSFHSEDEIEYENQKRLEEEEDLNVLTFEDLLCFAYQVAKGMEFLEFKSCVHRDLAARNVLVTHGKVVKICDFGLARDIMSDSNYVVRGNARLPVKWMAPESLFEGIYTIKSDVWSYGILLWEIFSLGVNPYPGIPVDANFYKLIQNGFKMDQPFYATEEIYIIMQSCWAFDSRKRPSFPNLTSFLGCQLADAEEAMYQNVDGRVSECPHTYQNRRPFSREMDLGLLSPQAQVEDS

NPM-ALK C1156Y = NPM-ALK C1156Y (Homo sapiens, UniProt Q9UM73, C1156Y); assay: BaF3 stable clone growth (WST-1), NPM-ALK C1156Y; conditions: BaF3 stables
NPM-ALK C1156Y, sequence (Q9UM73 1060-1620 C1156Y limits assumed): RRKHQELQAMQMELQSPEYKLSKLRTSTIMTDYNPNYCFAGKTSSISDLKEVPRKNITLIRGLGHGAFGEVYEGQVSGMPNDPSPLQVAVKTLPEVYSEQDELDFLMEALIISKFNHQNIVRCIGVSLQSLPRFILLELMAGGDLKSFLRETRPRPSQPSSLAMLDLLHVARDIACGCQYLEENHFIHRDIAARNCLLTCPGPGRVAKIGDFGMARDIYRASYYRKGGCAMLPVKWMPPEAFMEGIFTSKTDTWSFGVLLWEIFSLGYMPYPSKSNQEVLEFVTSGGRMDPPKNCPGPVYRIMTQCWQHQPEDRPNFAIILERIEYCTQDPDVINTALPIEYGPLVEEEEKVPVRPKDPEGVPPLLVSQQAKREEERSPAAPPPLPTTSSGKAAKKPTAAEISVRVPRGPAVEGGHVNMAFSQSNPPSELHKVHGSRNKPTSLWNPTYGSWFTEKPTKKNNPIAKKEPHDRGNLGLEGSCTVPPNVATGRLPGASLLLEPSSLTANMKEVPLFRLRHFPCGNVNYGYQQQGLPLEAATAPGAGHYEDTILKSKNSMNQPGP

NPM-ALK R1275Q = NPM-ALK R1275Q (Homo sapiens, UniProt Q9UM73, R1275Q); assay: BaF3 stable clone growth (WST-1), NPM-ALK R1275Q; conditions: read-out: BaF3 Stables IC50 ± SEE, R1275Q; NPM-ALK construct
NPM-ALK R1275Q, sequence (Q9UM73 1060-1620 R1275Q limits assumed): as the sequence (Q9UM73 1060-1620 C1156Y limits assumed) above, with Y97C, R216Q counted along it

EML4-ALK C1156Y = EML4-ALK C1156Y (Homo sapiens, UniProt Q9UM73, C1156Y); assay: BaF3 stable clone growth (WST-1), EML4-ALK C1156Y; conditions: BaF3 stables
EML4-ALK C1156Y, sequence (Q9UM73 1060-1620 C1156Y limits assumed): as the sequence (Q9UM73 1060-1620 C1156Y limits assumed) above

in vitro = conditions: rat, pH 7.4
[1] = Caco-2 cell permeation study; format: in vitro ADME; conditions: human; for Papp A→B at 2 h, 10 μM / Papp B→A at 2 h, 10 μM: Caco-2, 10 μM; for Papp A→B at 2 h, 10 μM: apical pH 6.5, 2 h; for Papp B→A at 2 h, 10 μM: basolateral pH 7.4, 2 h
[2] = Phase I microsome metabolic stability, rat; conditions: pH 7.4
EML4-ALK R1275Q = EML4-ALK R1275Q (Homo sapiens, UniProt Q9UM73, R1275Q); assay: BaF3 stable clone growth (WST-1), EML4-ALK R1275Q; conditions: read-out: BaF3 Stables IC50 ± SEE, R1275Q; EML4-ALK construct
EML4-ALK R1275Q, sequence (Q9UM73 1060-1620 R1275Q limits assumed): as the sequence (Q9UM73 1060-1620 C1156Y limits assumed) above, with Y97C, R216Q counted along it

[3] = biological target: hERG potassium channel current expressed in HEK293 cells (Homo sapiens, UniProt Q12809); assay: hERG automatic patch clamp (PatchXpress 7000A)
hERG potassium channel current expressed in HEK293 cells, sequence (Q12809 whole entry): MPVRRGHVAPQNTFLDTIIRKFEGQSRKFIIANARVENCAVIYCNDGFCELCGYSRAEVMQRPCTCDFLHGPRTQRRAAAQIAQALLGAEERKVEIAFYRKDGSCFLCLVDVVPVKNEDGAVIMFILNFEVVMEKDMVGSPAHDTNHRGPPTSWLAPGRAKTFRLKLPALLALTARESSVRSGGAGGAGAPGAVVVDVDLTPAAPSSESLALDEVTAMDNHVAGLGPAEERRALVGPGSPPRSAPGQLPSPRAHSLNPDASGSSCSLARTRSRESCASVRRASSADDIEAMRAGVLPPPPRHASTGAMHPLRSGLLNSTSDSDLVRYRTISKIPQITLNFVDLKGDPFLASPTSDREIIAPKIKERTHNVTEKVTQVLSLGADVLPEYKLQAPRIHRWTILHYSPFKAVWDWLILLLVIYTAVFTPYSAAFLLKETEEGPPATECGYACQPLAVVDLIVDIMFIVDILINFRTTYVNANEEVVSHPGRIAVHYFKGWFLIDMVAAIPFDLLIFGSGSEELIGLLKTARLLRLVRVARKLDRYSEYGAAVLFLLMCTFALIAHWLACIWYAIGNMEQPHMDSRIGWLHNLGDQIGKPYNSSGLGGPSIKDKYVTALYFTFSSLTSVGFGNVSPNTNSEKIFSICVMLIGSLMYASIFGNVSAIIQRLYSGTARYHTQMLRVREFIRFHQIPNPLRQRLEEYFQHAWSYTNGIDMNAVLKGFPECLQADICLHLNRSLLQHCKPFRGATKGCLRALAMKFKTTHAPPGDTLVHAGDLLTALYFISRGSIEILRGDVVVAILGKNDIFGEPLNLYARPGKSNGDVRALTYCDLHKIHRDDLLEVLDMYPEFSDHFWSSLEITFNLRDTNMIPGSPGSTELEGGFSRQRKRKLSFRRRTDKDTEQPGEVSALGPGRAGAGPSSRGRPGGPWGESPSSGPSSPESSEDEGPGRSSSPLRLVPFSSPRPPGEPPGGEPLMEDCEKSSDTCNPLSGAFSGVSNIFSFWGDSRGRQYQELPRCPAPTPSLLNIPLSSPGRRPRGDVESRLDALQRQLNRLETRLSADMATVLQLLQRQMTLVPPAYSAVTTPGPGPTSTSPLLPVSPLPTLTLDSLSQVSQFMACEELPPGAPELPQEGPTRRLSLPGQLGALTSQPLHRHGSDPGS

[4] = Phase I microsome metabolic stability, human; conditions: pH 7.4
NB-1 neuroblastoma cells = assay: 3 day cell viability (WST-1), NB-1; format: cell-based; conditions: 72 h, 3 days
ALK = biological target: T2, ALK (Homo sapiens, UniProt Q9UM73); assay: In vitro kinase activity assay (LANCE TR-FRET), ALK; format: biochemical
T2 construct: purchased Invitrogen

TrkA = biological target: T3, TrkA (Homo sapiens, UniProt P04629); assay: In vitro kinase activity assay (LANCE TR-FRET), TrkA; format: biochemical
T3 construct: purchased Invitrogen
T3 sequence (P04629 33-796): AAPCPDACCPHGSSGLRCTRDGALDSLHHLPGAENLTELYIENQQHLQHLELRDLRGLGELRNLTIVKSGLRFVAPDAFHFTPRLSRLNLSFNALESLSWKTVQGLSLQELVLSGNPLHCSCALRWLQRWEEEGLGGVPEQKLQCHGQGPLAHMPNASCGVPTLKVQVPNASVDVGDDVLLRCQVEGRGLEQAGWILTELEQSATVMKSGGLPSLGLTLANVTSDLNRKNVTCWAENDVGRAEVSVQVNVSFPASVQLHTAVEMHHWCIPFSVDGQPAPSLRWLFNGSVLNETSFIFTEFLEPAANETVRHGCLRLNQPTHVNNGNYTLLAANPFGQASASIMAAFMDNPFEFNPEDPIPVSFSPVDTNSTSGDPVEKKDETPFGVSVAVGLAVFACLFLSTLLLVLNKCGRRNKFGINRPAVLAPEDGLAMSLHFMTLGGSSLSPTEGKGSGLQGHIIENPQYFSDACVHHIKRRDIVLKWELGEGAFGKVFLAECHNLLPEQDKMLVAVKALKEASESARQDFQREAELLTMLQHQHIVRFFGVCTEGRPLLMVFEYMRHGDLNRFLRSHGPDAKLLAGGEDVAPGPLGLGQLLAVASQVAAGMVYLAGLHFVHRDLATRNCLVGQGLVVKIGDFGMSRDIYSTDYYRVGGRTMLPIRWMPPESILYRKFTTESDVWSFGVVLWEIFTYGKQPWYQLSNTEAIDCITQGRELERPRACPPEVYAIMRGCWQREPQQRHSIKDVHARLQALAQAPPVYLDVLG

cMET = biological target: T4, cMET (Homo sapiens, UniProt P08581); assay: In vitro kinase activity assay (LANCE TR-FRET), cMET; format: biochemical
T4 construct: purchased Invitrogen
T4 sequence (P08581 25-1390): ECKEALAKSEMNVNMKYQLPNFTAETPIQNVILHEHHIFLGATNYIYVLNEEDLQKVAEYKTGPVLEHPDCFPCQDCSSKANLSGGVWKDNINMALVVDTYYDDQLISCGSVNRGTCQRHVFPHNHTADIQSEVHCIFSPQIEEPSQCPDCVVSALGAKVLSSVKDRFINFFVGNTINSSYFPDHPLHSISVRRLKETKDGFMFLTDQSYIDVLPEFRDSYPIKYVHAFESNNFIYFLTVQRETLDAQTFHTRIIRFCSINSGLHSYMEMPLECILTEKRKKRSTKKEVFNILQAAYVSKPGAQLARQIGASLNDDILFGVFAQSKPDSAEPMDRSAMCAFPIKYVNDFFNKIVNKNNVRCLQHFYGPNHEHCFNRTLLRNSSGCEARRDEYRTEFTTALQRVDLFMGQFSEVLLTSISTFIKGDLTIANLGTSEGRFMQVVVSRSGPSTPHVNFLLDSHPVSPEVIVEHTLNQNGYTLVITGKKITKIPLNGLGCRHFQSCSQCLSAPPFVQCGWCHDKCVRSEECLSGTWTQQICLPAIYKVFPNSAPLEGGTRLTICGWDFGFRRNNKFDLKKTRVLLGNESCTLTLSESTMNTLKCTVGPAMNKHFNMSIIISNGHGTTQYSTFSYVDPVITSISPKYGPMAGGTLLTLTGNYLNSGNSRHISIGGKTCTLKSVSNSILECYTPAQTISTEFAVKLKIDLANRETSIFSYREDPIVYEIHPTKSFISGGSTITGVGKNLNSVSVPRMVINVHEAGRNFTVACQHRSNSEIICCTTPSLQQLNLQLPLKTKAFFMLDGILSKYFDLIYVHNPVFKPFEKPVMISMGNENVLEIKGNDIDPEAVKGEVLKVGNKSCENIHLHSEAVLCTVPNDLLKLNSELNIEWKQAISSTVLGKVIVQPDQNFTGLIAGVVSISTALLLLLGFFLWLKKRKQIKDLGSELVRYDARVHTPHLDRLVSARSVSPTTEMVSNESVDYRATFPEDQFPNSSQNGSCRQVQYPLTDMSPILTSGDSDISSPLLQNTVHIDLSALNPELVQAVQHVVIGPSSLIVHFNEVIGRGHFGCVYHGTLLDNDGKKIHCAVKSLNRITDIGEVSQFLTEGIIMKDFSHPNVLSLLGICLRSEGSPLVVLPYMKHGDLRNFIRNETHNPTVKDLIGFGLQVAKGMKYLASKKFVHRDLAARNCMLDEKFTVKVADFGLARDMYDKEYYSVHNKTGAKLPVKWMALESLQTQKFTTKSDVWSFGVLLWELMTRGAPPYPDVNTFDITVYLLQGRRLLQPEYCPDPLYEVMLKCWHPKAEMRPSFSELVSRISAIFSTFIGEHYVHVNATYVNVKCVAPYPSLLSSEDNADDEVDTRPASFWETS

K299 lymphoma cells = assay: 3 day cell viability (WST-1), K299; format: cell-based; conditions: Homo sapiens, 72 h, 3 days
[5] = Phase I microsome metabolic stability, mouse; format: in vitro ADME; conditions: 1.0 mg/ml microsomes
Caco-2 monolayers = assay: Caco-2 cell permeation study; format: in vitro ADME; conditions: for Papp A to B: apical pH 6.5, 2 h
[6] = Rat pharmacokinetics / bioavailability; format: in vivo; conditions: for AUC(0-t): male, Sprague-Dawley, plasma, read-out: AUC0-1440 (converted)
U937 lymphoma cells = assay: 3 day cell viability (WST-1), U937; format: cell-based; conditions: 3 days
[7] = Guinea pig pharmacokinetics; format: in vivo; conditions: 10 mg/kg PO
Mouse pharmacokinetics = format: in vivo; conditions: 10 mg/kg SC
Dog pharmacokinetics = format: in vivo, beagle dog; conditions: 5 mg/kg PO
[8] = positive control run with the compound of that line, 10 μM

In the case of “2-(4-(1-(5-Fluoro-2-methylphenyl)propan-2-ylamino)-2-oxo-1,2-dihydropyridin-3-yl)-6-(2-(dimethylamino)ethyl)-6,7-dihydroimidazo[4,5-f]isoindole-5(1H)-one [Compound 45]”, the GI50 (FLT3-ITD) is reported as greater than 1000 nM, the “reduced potency, C1156Y compared to NPM-ALK parent construct” value (NPM-ALK C1156Y) is reported as 1.6 fold and the IC50 (NPM-ALK R1275Q) is reported as 81 ± 4.2 nM. For the same molecule, the “reduced potency, C1156Y compared to EML4-ALK parent construct” value (EML4-ALK C1156Y) was 1.3 fold.

Work on C[C@@H](Cc1cc(F)ccc1F)Nc1cc[nH]c(=O)c1-c1nc2cc3c(cc2[nH]1)C(=O)N(C)C3=O (stereo in doubt) [Compound 32, 2-(4-(1-(2,5-Difluorophenyl)propan-2-ylamino)-2-oxo-1,2-dihydropyridin-3-yl)-6-methylimidazo[4,5-f]isoindole-5,7(1H,6H)-dione] yielded a microsomal CLint at 0.5 μM (in vitro) of less than 5 µL/min/mg and a Papp A→B at 2 h, 10 μM [1] greater than 0.2 ×10⁻⁶ cm/s.

Work on C[C@@H](Cc1c(F)c(F)cc(F)c1F)Nc1cc[nH]c(=O)c1-c1nc2cc3c(cc2[nH]1)CN(C1CCN(C)CC1)C3=O [Compound 4, (S)-6-(1-Methylpiperidin-4-yl)-2-(2-oxo-4-(1-(2,3,5,6-tetrafluorophenyl)propan-2-ylamino)-1,2-dihydropyridin-3-yl)-6,7-dihydroimidazo[4,5-f]isoindol-5(3H)-one] yielded a half-life at 0.5 μM [2] greater than 2 h, a microsomal CLint at 0.5 μM [2] of less than 5.8 µL/min/mg and an IC50 (EML4-ALK R1275Q) of 2885 ± 20 nM. The IC50 [3] was 2720 nM, the half-life at 0.5 μM [4] was greater than 2 h and the microsomal CLint at 0.5 μM [4] was less than 5.8 µL/min/mg. The Papp A→B at 2 h, 10 μM [1] was less than 0.2 ×10⁻⁶ cm/s, the Papp B→A at 2 h, 10 μM [1] was 20 ×10⁻⁶ cm/s and the “reduced potency, C1156Y compared to EML4-ALK parent construct” value (EML4-ALK C1156Y) was 2.0 fold. It also gave an IC50 (NB-1 neuroblastoma cells) of 257 nM.

Molecule C[C@@H](Cc1c(F)c(F)cc(F)c1F)Nc1cc[nH]c(=O)c1-c1nc2cc3c(cc2[nH]1)C(=O)N(c1cccnc1)C3O (stereo partly drawn) [Compound 13, 7-Hydroxy-2-(2-oxo-4-(((S)-1-(2,3,5,6-tetrafluorophenyl)propan-2-yl)amino)-1,2-dihydropyridin-3-yl)-6-(pyridin-3-yl)-6,7-dihydroimidazo[4,5-f]isoindol-5(1H)-one] has an IC50 (ALK) of 15.2 nM and an IC50 (TrkA) of 6.36 nM.

Molecule C[C@@H](Cc1c(F)c(F)cc(F)c1F)Nc1cc[nH]c(=O)c1-c1nc2cc3c(cc2[nH]1)C(=O)N(c1ccc(F)nc1)C3=O [Compound 15, (S)-6-(6-Fluoropyridin-3-yl)-2-(2-oxo-4-((1-(2,3,5,6-tetrafluorophenyl)propan-2-yl)amino)-1,2-dihydropyridin-3-yl)imidazo[4,5-f]isoindole-5,7(1H,6H)-dione] has an IC50 (cMET) greater than 10000 nM, a Papp A→B at 2 h, 10 μM [1] of less than 0.2 ×10⁻⁶ cm/s and a Papp B→A at 2 h, 10 μM [1] of less than 0.2 ×10⁻⁶ cm/s. The IC50 (K299 lymphoma cells) was greater than 10000 nM.

For CC(Cc1cc(F)ccc1F)Nc1cc[nH]c(=O)c1-c1nc2cc3c(cc2[nH]1)CN(C)C3=O (centres unmarked) [Compound 33, 2-(4-(1-(2,5-Difluorophenyl)propan-2-ylamino)-2-oxo-1,2-dihydropyridin-3-yl)-6-methyl-6,7-dihydroimidazo[4,5-f]isoindol-5(1H)-one], the “Mouse LM-P1 Half-life” value ([5]; Phase I only, 0.5 μM) was 0.901 h, the half-life at 0.5 μM ([5]; mouse, liver microsomes, pH 7.4, Phase I only, read-out: Mouse LM-P1 Half-life) was 0.214 h and the “Papp A to B” value (Caco-2 monolayers; Caco-2, 10 μM) was 1.7 10−6 cm/sec. For the same molecule, the “Papp B to A” value (Caco-2 monolayers; Caco-2, 10 μM, basolateral pH 7.4, 2 h) was 1.4 10−6 cm/sec and the “Efflux Ratio” value (Caco-2 monolayers; Caco-2, B to A / A to B) was 0.5.

For CC(Cc1cc(F)ccc1F)Nc1cc[nH]c(=O)c1-c1nc2cc3c(cc2[nH]1)C(=O)N(CC(O)CO)C3=O [Compound 34, 2-(4-(1-(2,5-Difluorophenyl)propan-2-ylamino)-2-oxo-1,2-dihydropyridin-3-yl)-6-(R)-2,3-dihydroxypropyl)imidazo[4,5-f]isoindole-5,7(1H,6H)-dione], the Papp A→B at 2 h, 10 μM [1] was less than 0.2 ×10⁻⁶ cm/s and the “Papp A to B” value (Caco-2 monolayers; Caco-2, 10 μM) was >0.2 10−6 cm/sec.

CC(Cc1cc(F)ccc1F)Nc1cc[nH]c(=O)c1-c1nc2cc3c(cc2[nH]1)CNC3=O (centres unmarked) [Compound 53] gave a half-life at 0.5 μM (in vitro) of 8.88 min, an F ([6]; 10 mg/kg P.O.) of 0.402% and an AUC(0-t) ([6]; iv, 10 mg/kg I.V.) of 8850 ng·h/mL. For the same molecule, the AUC(0-t) ([6]; po, 10 mg/kg P.O.) was 35.5 ng·h/mL.

For CC(C)NCC(O)COc1cccc2ccccc12 (centres unmarked) [Propranolol, reference compound], the recovery at 2 h, 10 μM ([1]; Caco-2, Pos Ctrl: Propranolol Recovery, positive control run with the compound of that line, 10 μM) was 44%, the Papp at 2 h, 10 μM ([1]; Caco-2, positive control run with the compound of that line, 10 μM) was 14 ×10⁻⁶ cm/s and the “Pos Ctrl (Papp): Propranolol Papp” value (Caco-2 monolayers; [8]) was 13.7 and 14.3 and 11.8. For the same molecule, the “Pos Ctrl: Propranolol Recovery” value (Caco-2 monolayers; [8]) was 63% and 26%.

“(S)-6-(2-(Dimethylamino)ethyl)-2-(2-oxo-4-((1-(2,3,5,6-tetrafluorophenyl)propan-2-yl)amino)-1,2-dihydropyridin-3-yl)-6,7-dihydroimidazo[4,5-f]isoindol-5(3H)-one [Compound 1]” showed an IC50 (U937 lymphoma cells) of 1600 nM, an IC50 ([3]; read-out: hERG inhib. IC50, HEK293, hERG tail current) of 6250 nM and a GI50 (FLT3-ITD) greater than 3000 nM. It also gave an F [7] of 1%, an AUC0-1440 ([6]; 10 mg/kg I.V.) of 329 µg·min/mL and a CL ([6]; 10 mg/kg I.V.) of 25.5 mL/min/kg. The MRT ([6]; 10 mg/kg I.V.) was 22.7 h, the T1/2 ([6]; 10 mg/kg I.V.) was 22.05 h and the Vss ([6]; 10 mg/kg I.V.) was 23.9 L/kg. It also gave an AUC0-1440 ([6]; 10 mg/kg P.O.) of 0.943 µg·min/mL, a Cmax ([6]; 10 mg/kg P.O.) of 2.21 ng/mL and an F ([6]; 10 mg/kg P.O.) of 0.287%. The Tmax ([6]; 10 mg/kg P.O.) was 1.88 h, the F (Mouse pharmacokinetics) was 30% and the “Compound 1 (parameter cell as printed)” value (Dog pharmacokinetics) was 17.2 µg·min/mL. It also gave an F (Dog pharmacokinetics) of 12%.

From patent US9273055B2, “Tyrosine kinase inhibitors” (Chembridge Corporation, priority 2008, dated 2016)
